# Data from publication PMC11123692, “Sugar-Based Surfactants: Effects of Structural Features on the Physicochemical Properties of Sugar Esters and Their Comparison to Commercial Octyl Glycosides” (Molecules, 2024).
# Values joined by “and” are separate entries in the source; they are usually repeats but may differ in a detail not shown here. Equal values may be shown once. Read-outs that look alike come from different tables or passages of the source.
# Tests used:
# [1] = Water solubility limit by visual examination (transparent/turbid); type: physicochemical; conditions: water; for solubility: thermodynamic from solid, read-out: Solubility Limit (S/mM)
# Excerpt: Water solubility reflects the ability of a particular molecule to dissolve and its interaction with water. To characterize the water solubility of most amphiphile molecules, especially the ionic surfactants, the Krafft point (Tk) is often used, referring to the critical temperature above which micelles form or the melting point of the hydrated solid surfactant. Two general approaches were used to measure the Tks of the molecules investigated herein: (1) a visual examination of the dissolution phenomenon for binary molecule/water systems, and (2) a quantitative measurement by using differential scanning calorimetry (DSC) analysis. The visual observation procedure is detailed below. […] Consequently, molecules can be classified into two major types: those soluble in water at RT and others insoluble at RT, with the solubility limit being called S (expressed in mM). The aspect of the sample, either transparent or turbid, is determined by direct visual examination. Tk determination with DSC is particularly applicable in the case of molecules insoluble at RT, for which a concentrated binary molecule/water mixture with a mass fraction of 20% of each molecule (C >> CMC in most cases) was prepared at 65 °C under stirring for 30 min to obtain a homogeneous system. These pre-homogenized aqueous systems were cooled and conserved in a refrigerator at 4 °C for a suitable period (>7 days), during which equilibrated hydrated crystals formed and precipitated. Then, for each molecule, about a 200–400 mg crystal sample was taken and put into the calorimeter cell. The first equilibrium phase was programmed at 4 °C for 1 h, followed by a slow heating stage from 4 °C to 65 °C at a rate of 0.5 °C/min. Tk was determined based on the location of the endothermic peak on the DSC curve, if any. All agitations were performed using a standard magnetic hotplate stirrer, MR 3001K (Heidolph Instruments, Schwabach, Germany). DSC curves were obtained from a commercial µDSC7 evo calorimeter (SETARAM Instrumentation, Caluire-et-Cuire, France). Tks are reported as the averages of at least two measurements as well as their standard deviations.
# [2] = Krafft temperature (Tk) by visual examination and DSC of molecule/water systems; type: physicochemical; conditions: in water; observation and DSC; average ± SD of at least two measurements
# Excerpt: Water solubility reflects the ability of a particular molecule to dissolve and its interaction with water. To characterize the water solubility of most amphiphile molecules, especially the ionic surfactants, the Krafft point (Tk) is often used, referring to the critical temperature above which micelles form or the melting point of the hydrated solid surfactant. Two general approaches were used to measure the Tks of the molecules investigated herein: (1) a visual examination of the dissolution phenomenon for binary molecule/water systems, and (2) a quantitative measurement by using differential scanning calorimetry (DSC) analysis. The visual observation procedure is detailed below. We start with adding the molecule into 5–50 mL water, in a concentration range between 10^−2 mM and 10^3 mM (corresponding to a range of a surfactant mass concentration well below 20%), keeping the suspension under stirring for a certain time at room temperature (RT). Consequently, molecules can be classified into two major types: those soluble in water at RT and others insoluble at RT, with the solubility limit being called S (expressed in mM). The aspect of the sample, either transparent or turbid, is determined by direct visual examination. Tk determination with DSC is particularly applicable in the case of molecules insoluble at RT, for which a concentrated binary molecule/water mixture with a mass fraction of 20% of each molecule (C >> CMC in most cases) was prepared at 65 °C under stirring for 30 min to obtain a homogeneous system. These pre-homogenized aqueous systems were cooled and conserved in a refrigerator at 4 °C for a suitable period (>7 days), during which equilibrated hydrated crystals formed and precipitated. Then, for each molecule, about a 200–400 mg crystal sample was taken and put into the calorimeter cell. The first equilibrium phase was programmed at 4 °C for 1 h, followed by a slow heating stage from 4 °C to 65 °C at a rate of 0.5 °C/min. Tk was determined based on the location of the endothermic peak on the DSC curve, if any. All agitations were performed using a standard magnetic hotplate stirrer, MR 3001K (Heidolph Instruments, Schwabach, Germany). DSC curves were obtained from a commercial µDSC7 evo calorimeter (SETARAM Instrumentation, Caluire-et-Cuire, France). Tks are reported as the averages of at least two measurements as well as their standard deviations.
# [3] = Equilibrium surface tension, Wilhelmy plate method (CMC, γcmc, Amin and derived quantities); type: physicochemical; conditions: for Amin: from Gibbs adsorption equation
# Description: CMCs are determined from the inflections in the plots of equilibrium surface tension against the logarithm of the concentration. For the interested reader, the Gibbs-free energy of micellization, ΔGmic, the Gibbs-free energy of adsorption, ΔGads, and the efficiency of surfactant adsorption pC20 were calculated based on their definitions, as presented in Table 2.
# The surface activity reflects the amphiphiles’ adsorption behavior on the air–aqueous solution interface. The surface tension (γ) was obtained using the Wilhelmy plate method with a K100 Processor Tensiometer (KRUSS, Hamburg, Germany). Both the critical micellar concentration (CMC) and equilibrium surface tension at the CMC (γcmc) were derived from the typical plot of surface tension (γ) against the logarithm of concentration (Log C). The surface excess (Γmax) and minimal area per molecule at the air–aqueous solution interface (Amin) at different temperatures were calculated from the Gibbs adsorption equation [3, 46]:(2) Γmax=−1/2.303RT(dγ/dlogc) and (3) Amin=10^20/NAΓmax where R is the ideal gas constant, 8.31 J∙mol^−1∙K^−1; T is the measuring temperature, K; γ is the surface tension, N/m; c is the concentration, mol.L^−1; Amin is the minimal area per molecule, Å^2, and NA is Avogadro’s number, 6.022·10^23 mol^−1.
# For each molecule, several solutions of a wide range of concentrations were prepared. Before measuring, each solution was finely homogenized with the help of a magnetic stirring bar. The stirring time was fixed at 30 min in all cases. […] Then, measurements were performed once for each concentration, at the solution preparation’s temperature, with an uncertainty of ±1 °C.
# [4] = cited from earlier work
# [5] = above its Tk; cited from earlier work
# [6] = at 25 °C, mixture of α and β anomers
Structure (SMILES),Tk (Krafft temperature) [2] [°C],solubility ([1]; at RT) [mM],C20 ([3]; T = 25 °C) [mM],pC20 ([3]; T = 25 °C),ΔGads ([3]; T = 25 °C) [kcal/mol],ΔGmic ([3]; T = 25 °C) [kcal/mol],CMC ([3]; T = 25 °C (T > Tk)),γcmc ([3]; T = 25 °C (T > Tk)) [mN/m],Amin ([3]; T = 25 °C) [Å^2/molecule],other results
CCCCCCCCOC(=O)[C@@H](O)[C@@H](O)[C@H](O)[C@@H](O)C=O [octyl D-glucuronate],,,,,,,,,,"CMC [4, 6]: 10.7 mM; CMC ([4]; ref 17): 10.68 mM"
"CCCCCCCCOC(=O)[C@H]1O[C@H](OC)[C@H](O)[C@@H](O)[C@@H]1O [MeαGlc(C=O)OC8, methyl octyl α-D-glucuronate]",<4,15 to 20,0.5,3.3,-7.3,-4.8,6 mM and 6 ± 0.5 mM,29.2 ± 0.35,41 ± 1,
CCCCCCOC(=O)[C@H]1O[C@H](OC)[C@H](O)[C@@H](O)[C@@H]1O [MeαGlc(C=O)OC6],<4,≤ 50,5.9,2.2,-5.9,-3.6,55 ± 5 mM,30.8 ± 0.8,39.2 ± 2.9,
CCCCCCCC(=O)O[C@H]1[C@H](O)[C@@H](CO)OC(O)[C@@H]1O (stereo partly drawn) [3-O-octanoyl-D-glucopyranose],,,,,,,,,,CMC ([4]; mixture of α and β anomers): 0.61 mM; CMC ([4]; ref 21): 1.6 mM
CCCCCCCC(=O)OC[C@H]1O[C@@H](O)[C@H](O)[C@@H](O)[C@@H]1O [6-O-octanoyl-β-glucose],,,,,,,,,,solubility limit [5]: 25 mg/mL and > 80 mM; CMC ([4]; ref 20): 18 mM
CCCCCCCC(=O)OC1O[C@H](CO)[C@@H](O)[C@H](O)[C@H]1O (stereo partly drawn) [D-glucosyl octanoate],,,,,,,,,,"CMC [4, 6]: 19.1 mM"
CCCCCCCCCCOC(=O)[C@H]1O[C@H](OC)[C@H](O)[C@@H](O)[C@@H]1O [MeαGlc(C=O)OC10],<4,0.5 to 0.75,0.05,4.3,-8.6,-5.9,0.65 ± 0.5 mM,28.1 ± 0.1,42.4 ± 2,

# Continued, in another order:
Tk (Krafft temperature) [2] [°C],solubility ([1]; at RT) [mM],C20 ([3]; T = 25 °C) [mM],pC20 ([3]; T = 25 °C),ΔGads ([3]; T = 25 °C) [kcal/mol],ΔGmic ([3]; T = 25 °C) [kcal/mol],CMC ([3]; T = 25 °C (T > Tk)),γcmc ([3]; T = 25 °C (T > Tk)) [mN/m],Amin ([3]; T = 25 °C) [Å^2/molecule],Structure (SMILES),other results
26.5 ± 0.2,,,,,,,,,"CCCCCCCCCC(=O)OC[C@H]1O[C@H](OC)[C@H](O)[C@@H](O)[C@@H]1O [MeαGlcO(C=O)C9, Methyl 6-O-decanoyl-α-D-glucopyranoside]",Solubility Limit (S/mM) ([1]; at RT): insoluble; solubility ([1]; at T > Tk): ≤ 1 mM; C20 ([3]; T = 30 °C): 0.08 mM; pC20 ([3]; T = 30 °C): 4.1; ΔGads ([3]; T = 30 °C): -8.4 kcal/mol; ΔGmic ([3]; T = 30 °C): -5.8 kcal/mol; CMC ([3]; T = 30 °C (T > Tk)): 0.92 ± 0.08 mM; γcmc ([3]; T = 30 °C (T > Tk)): 27.9 ± 0.05 mN/m; Amin ([3]; T = 30 °C): 41.8 ± 0.9 Å^2/molecule
31.6 ± 0.9,,,,,,,,,"CCCCCCCCOC(=O)[C@H]1O[C@@H](OC)[C@H](O)[C@@H](O)[C@H]1O [MeβGal(C=O)OC8, methyl octyl galacturonate]",Solubility Limit (S/mM) ([1]; at RT): insoluble; Solubility Limit (S/mM) ([1]; at T > Tk): high solubility limits; solubility ([1]; at T > Tk): > 100 mM; C20 ([3]; T = 40 °C): 1.2 mM; pC20 ([3]; T = 40 °C): 2.9; ΔGads ([3]; T = 40 °C): -7.4 kcal/mol; ΔGmic ([3]; T = 40 °C): -5.0 kcal/mol; CMC ([3]; T = 40 °C (T > Tk)): 6.9 ± 0.4 mM; γcmc ([3]; T = 40 °C (T > Tk)): 29.4 ± 0.36 mN/m; Amin ([3]; T = 40 °C): 42.9 ± 3.9 Å^2/molecule
<4,< 40,11.2,2.0,-5.6,-3.3,105 ± 5 mM,31 ± 0.1,40.1 ± 0.3,"CCCCCC(=O)OC[C@H]1O[C@H](OC)[C@H](O)[C@@H](O)[C@@H]1O [MeαGlcO(C=O)C5, Methyl 6-O-hexanoyl-α-D-glucopyranoside]",
<4,≤ 10,1.0,3.0,-6.9,-4.5,9.8 mM and 9.8 ± 0.76 mM,29.5 ± 0.5,39 ± 2,"CCCCCCCC(=O)OC[C@H]1O[C@H](OC)[C@H](O)[C@@H](O)[C@@H]1O [MeαGlcO(C=O)C7, Methyl 6-O-octanoyl-α-D-glucopyranoside]",solubility ([1]; at T > Tk): < 10 mM
42.9 ± 0.1,,,,,,,,,"CCCCCCCCCCCC(=O)OC[C@H]1O[C@H](OC)[C@H](O)[C@@H](O)[C@@H]1O [MeαGlcO(C=O)C11, Methyl 6-O-dodecanoyl-α-D-glucopyranoside]",Solubility Limit (S/mM) ([1]; at RT): insoluble; solubility ([1]; at T > Tk): ≤ 0.1 mM; C20 ([3]; T = 50 °C): 0.007 mM; pC20 ([3]; T = 50 °C): 5.1; ΔGads ([3]; T = 50 °C): -10.4 kcal/mol; ΔGmic ([3]; T = 50 °C): -7.7 kcal/mol; CMC ([3]; T = 50 °C (T > Tk)): 0.08 ± 0.005 mM; γcmc ([3]; T = 50 °C (T > Tk)): 26.7 ± 0.25 mN/m; Amin ([3]; T = 50 °C): 45.8 ± 2.8 Å^2/molecule
<4,> 100,0.7,3.1,-7.3,-4.6,8.5 ± 0.5 mM,28.3 ± 0.35,42.7 ± 2.4,"CCCCCCCC(=O)OC[C@H]1O[C@@H](OC)[C@H](O)[C@@H](O)[C@H]1O [MeβGalO(C=O)C7, Methyl 6-O-octanoyl-β-D-galactopyranoside]",Solubility Limit (S/mM) ([1]; at T > Tk): high solubility limits
22.1 ± 0.2,0.02 to 0.05,0.004,5.4,-10.1,-7.2,0.056 ± 0.004 mM,28.3 ± 0.3,45.6 ± 5,CCCCCCCCCCCCOC(=O)[C@H]1O[C@H](OC)[C@H](O)[C@@H](O)[C@@H]1O [MeαGlc(C=O)OC12],
